Assay results as given in ChEMBL document CHEMBL3400093, “Synthesis and biological evaluation of novel tyrosyl-DNA phosphodiesterase 1 inhibitors with a benzopentathiepine moiety” (Bioorg Med Chem, 2015).
Calls of active or inactive are those of the source. No cut-off for these calls is given here.

How the values were obtained:
[1] = molecular target: Tyrosyl-DNA phosphodiesterase 1 (Homo sapiens, UniProt Q9NUW8); test: Inhibition of recombinant TDP1 (unknown origin) assessed as increase in fluorescence
[2] = tested on: MCF7; test: Cytotoxicity against human MCF7 cells assessed as reduction In cell number after 72 hrs by MTT assay; assay type: functional; conditions: MCF7, 72 h
[3] = tested on: HepG2; test: Cytotoxicity against human HepG2 cells assessed as reduction In cell number after 72 hrs by MTT assay; assay type: functional; conditions: HepG2, 72 h
[4] = tested on: MCF7; test: Induction of apoptosis in human MCF7 cells assessed as apoptotic DNA fragments at 100 uM after 72 hrs by DNA gel electrophoresis assay; assay type: functional, cell-based
[5] = tested on: MCF7; test: Induction of apoptosis in human MCF7 cells assessed as P1 population at 200 uM after 24 hrs by annexin V-FITC/propidium iodide staining-based FACS flow cytometric analysis relative to control; assay type: functional
[6] = tested on: MCF7; test: Induction of apoptosis in human MCF7 cells assessed as P1 population at 200 uM after 48 hrs by annexin V-FITC/propidium iodide staining-based FACS flow cytometric analysis relative to control; assay type: functional
[7] = tested on: MCF7; test: Induction of apoptosis in human MCF7 cells assessed as P1 population at 100 uM after 24 hrs by annexin V-FITC/propidium iodide staining-based FACS flow cytometric analysis relative to control; assay type: functional
[8] = tested on: MCF7; test: Cytotoxicity against human MCF7 cells assessed as condensation of nuclei, shrinkage of the cytoplasm, convolution of outlines, budding and formation of apoptotic bodies at 40 uM after 24 hrs by light microscopy; assay type: functional, cell-based
[9] = tested on: MCF7; test: Cytotoxicity against human MCF7 cells assessed as condensation of nuclei, shrinkage of the cytoplasm, convolution of outlines, budding and formation of apoptotic bodies at 200 uM after 24 hrs by light microscopy; assay type: functional, cell-based
[10] = tested on: HepG2; test: Cytotoxicity against human HepG2 cells assessed as condensation of nuclei, shrinkage of the cytoplasm, convolution of outlines, budding and formation of apoptotic bodies at 40 uM after 24 hrs by light microscopy; assay type: functional, cell-based
[11] = tested on: HepG2; test: Cytotoxicity against human HepG2 cells assessed as condensation of nuclei, shrinkage of the cytoplasm, convolution of outlines, budding and formation of apoptotic bodies at 200 uM after 24 hrs by light microscopy; assay type: functional, cell-based
[12] = tested on: MCF7; test: Induction of apoptosis in human MCF7 cells assessed as P1 population at 100 uM after 48 hrs by annexin V-FITC/propidium iodide staining-based FACS flow cytometric analysis relative to control; assay type: functional
[13] = tested on: MCF7; test: Induction of apoptosis in human MCF7 cells assessed as P2 population at 100 uM after 48 hrs by annexin V-FITC/propidium iodide staining-based FACS flow cytometric analysis (reference value: 13.5%); assay type: functional
[14] = tested on: MCF7; test: Induction of apoptosis in human MCF7 cells assessed as P2 population at 200 uM after 48 hrs by annexin V-FITC/propidium iodide staining-based FACS flow cytometric analysis (reference value: 13.5%); assay type: functional

Sequence of Tyrosyl-DNA phosphodiesterase 1 (Q9NUW8 whole entry): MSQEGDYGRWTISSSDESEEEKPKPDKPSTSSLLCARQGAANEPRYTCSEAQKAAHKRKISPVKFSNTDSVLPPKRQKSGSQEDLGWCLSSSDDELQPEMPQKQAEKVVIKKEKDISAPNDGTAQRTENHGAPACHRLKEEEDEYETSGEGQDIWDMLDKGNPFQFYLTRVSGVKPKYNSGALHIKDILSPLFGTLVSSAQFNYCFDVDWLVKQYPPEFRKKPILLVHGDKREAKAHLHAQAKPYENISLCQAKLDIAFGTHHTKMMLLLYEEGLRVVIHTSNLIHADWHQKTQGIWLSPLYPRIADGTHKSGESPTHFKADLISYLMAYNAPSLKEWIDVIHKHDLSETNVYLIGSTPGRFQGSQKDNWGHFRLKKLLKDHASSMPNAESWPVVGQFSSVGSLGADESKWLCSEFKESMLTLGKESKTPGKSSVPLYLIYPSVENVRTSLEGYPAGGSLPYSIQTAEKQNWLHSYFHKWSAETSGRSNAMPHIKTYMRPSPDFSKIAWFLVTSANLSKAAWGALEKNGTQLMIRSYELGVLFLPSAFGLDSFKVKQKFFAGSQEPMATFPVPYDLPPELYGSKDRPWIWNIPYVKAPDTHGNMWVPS

Row | SMILES | IC50 [1] [µM] | CC50 [2] [µM] | Activity [4] | Activity [5] [%] | Activity [6] [%] | other results
1 | O=C(CCN1CCCCC1)Nc1cc(C(F)(F)F)cc2c1SSSSS2 | 3.66 | – | – | – | – | –
2 | O=C(CN1CCCCC1)Nc1ccccc1 | > 10 | – | – | – | – | –
3 | CCCCN(CCCC)CC(=O)Nc1cc(C(F)(F)F)cc2c1SSSSS2 | 0.22 | 28.1 | Active | 1.51 | 10.5 | CC50 [3]: > 100 µM
4 | Nc1cc(C(F)(F)F)cc2c1SSSSS2 | > 10 | 14 | Active | 0 | 0.8 | CC50 [3]: 26.6 µM; Activity [7]: 0%
5 | O=C(CN1CCCC1)Nc1ccccc1 | > 10 | – | – | – | – | –
6 | O=C(Nc1cc(C(F)(F)F)cc2c1SSSSS2)C(F)(F)F | > 10 | 21 | Active | 8.3 | 20.1 | inhibition [8]: Active; inhibition [9]: Active; inhibition [10]: Active; inhibition [11]: Active; Activity [7]: 1.2%; Activity [12]: 9.5%; Activity [13]: 23%; Activity [14]: 33.6%
7 | O=C(CCN1CCCC1)Nc1cc(C(F)(F)F)cc2c1SSSSS2 | 6.03 | – | – | – | – | –
8 | O=C(CN1CCOCC1)Nc1cc(C(F)(F)F)cc2c1SSSSS2 | 1.62 | – | – | – | – | –
9 | O=C(CN1CCCC1)Nc1cc(C(F)(F)F)cc2c1SSSSS2 | 3.7 | – | – | – | – | –
10 | O=C(CN1CCCCC1)Nc1cc(C(F)(F)F)cc2c1SSSSS2 | 1.28 | 19.3 | Active | 0 | 0.9 | CC50 [3]: 24.4 µM; Activity [7]: 0%
11 | O=C(CCN1CCOCC1)Nc1cc(C(F)(F)F)cc2c1SSSSS2 | 1.3 | – | – | – | – | –
